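Method: 48-hour compound exposure of cells in 96-well plates, five concentrations, linear interpolation of endpoints. At the GI50, growth is halved. The concentration for full growth arrest is given as TGI.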

The source of these data is PubChem BioAssay (NCI).

Common to all, as to assay: NCI anticancer screen, dose series, 48 h
For test [1], the system named is MCF7 breast.
The test system of test [2] is MDA-N.
Test [3] has as its system UO-31 renal.
Test [4] has as its system MALME-3M melanoma.
Test [5] concerns PC-3 prostate.
In test [6] the test system is HL-60(TB) leukemia.
Test [7] concerns K-562 leukemia.
For test [8], the system named is HCC-2998 colon.
Test [9] has as its system SN12C renal.
Test [10] has as its system RXF 393 renal.
Test [11] relates to A549 NSCLC.
The subject of test [12] is HOP-92 NSCLC.

`NC1=NC(=O)[C@H](CSCc2ccccc2)N1C(=O)OCc1ccccc1`: the TGI in test [1], in [2], in test [3], in test [4], in test [5] and in test [6] was greater than 100 µM in each case. Besides, the TGI in [7], in test [8], in test [9] and in [10] was greater than 100 µM throughout.
Turning to `CN(Cc1cnc2nc(N)nc(N)c2n1)c1ccc(C(=O)NC2CCCCC2)cc1`, the TGI is greater than 100 µM in [1]; greater than 100 µM in test [2]; greater than 100 µM in [3]; greater than 100 µM in [4]; 46 µM in test [5]; greater than 100 µM in test [6]. In addition, the TGI in [7], in test [9] and in [10] was greater than 100 µM throughout.
For `N#Cc1c(-c2ccccc2)cc(Nc2ccc(F)cc2)n2c1nc1ccccc12`, the TGI in [1] was 5.97 µM; in test [3], 6.66 µM; in [4] it was greater than 28.4 µM; in test [5] it was 4.97 µM; in test [6], greater than 100 µM; in test [7] it was greater than 100 µM. The TGI in [8] is greater than 100 µM; in test [9], 6.1 µM; in test [10] it was greater than 31.4 µM; in test [11], greater than 100 µM.
As for `O=C(O)c1ccccc1/C=C1\Cc2ccc3c(c2C1=O)CCCC3`, the TGI was greater than 100 µM in test [1]; greater than 100 µM in test [3]; greater than 100 µM in test [4]; 62.3 µM in [6]; greater than 100 µM in [7]; 85.1 µM in test [8]. For the same compound, the TGI is greater than 100 µM in test [9], 76.3 µM in [10], 47.6 µM in test [12] and greater than 100 µM in test [11].
As to `Nc1nc(SCC(=O)c2ccccc2)nc2nc3c(c(-c4ccccc4)c12)CCCC3`, the TGI in test [1], in test [2], in test [3], in [4], in test [6] and in test [7] was greater than 100 µM in each case. The TGI in test [8] was greater than 100 µM; in [9], greater than 100 µM; in [10] it was 70.8 µM; in [11] it was greater than 100 µM.
As for `CC1(C)O[C@@H]([C@@H](O)[C@H](O)C2SCCCS2)[C@@H](CO)O1`, the TGI in [2], in test [3], in [4], in test [5], in [6] and in test [7] was greater than 100 µM each time. For the same compound, the TGI in [9], in test [10], in test [12] and in [11] was greater than 100 µM each time.
For the compound `c1ccc2c(-c3ccnc(-c4c[nH]c5ccccc45)n3)c[nH]c2c1`, the TGI in test [1] is 54.2 µM; in test [2], 7.33 µM; in test [3] it was greater than 100 µM; in test [5], 10.7 µM; in test [6], 30.8 µM; in [7], greater than 100 µM. Moreover, the TGI in test [9] was 19.7 µM; in test [12], 5.83 µM; in test [11], greater than 100 µM.
For `CCOC(=O)/C(C#N)=N\Nc1ccc(-n2c(C)nc3ccc(Br)cc3c2=O)cc1`, the TGI in test [1], in test [2], in test [3], in test [5], in [6] and in test [7] was greater than 100 µM each time. The TGI in test [9], in [12] and in [11] was greater than 100 µM in each case.
For `CCOC(=O)C(NC(=O)Nc1ccccc1F)(OC)C(F)(F)F` (stereo not given), the TGI in test [2], in test [3], in test [5], in test [6], in test [7] and in [8] was greater than 100 µM in each case. For the same compound, the TGI in [9], in test [10] and in [11] was greater than 100 µM each time.
For `N=C1SCCS1`, the TGI in [3], in [4], in test [6], in test [7], in test [8] and in [9] was greater than 100 µM throughout. The TGI in test [12] and in test [11] was greater than 100 µM each time.
On to `COC(=O)C(NC(=O)C12CCC(C)(C(=O)O1)C2(C)C)c1cc(C(C)(C)C)c(O)c(C(C)(C)C)c1` (stereo not given), for which the TGI in test [1] is greater than 100 µM; in [3] it was greater than 100 µM; in test [4], greater than 100 µM; in test [5] it was greater than 100 µM; in test [6], 32.1 µM; in [7], greater than 100 µM. For the same compound, the TGI in [10], in test [12] and in test [11] was greater than 100 µM each time.
For `Cc1oc2nc(N(C)C)n3c(C)nnc3c2c1C`, the TGI in test [1], in test [3], in [7], in test [8], in test [9] and in test [10] was greater than 100 µM in each case. In addition, the TGI in test [12] and in [11] was greater than 100 µM each time.
For the compound `CC(=O)/C(=C\n1c(=S)[nH]c2ccc([N+](=O)[O-])cc21)C(=O)Nc1ccccc1C`, the TGI in test [1], in [2], in test [4], in test [5], in test [6] and in test [7] was greater than 100 µM each time. The TGI in test [8], in [9], in test [10] and in [11] was greater than 100 µM throughout.
`COC1(CCO)CC=CCC1(CCO)OC` (stereo not given): the TGI in [1], in test [2], in test [3], in test [4], in test [5] and in test [6] was greater than 100 µM each time. Also, the TGI in [7], in [9], in test [12] and in [11] was greater than 100 µM in each case.
For the compound `Cc1[nH]c2ncn(N)c(=N)c2c1Cc1ccccc1`, the TGI in test [1], in test [2], in test [3], in [4], in test [5] and in test [6] was greater than 100 µM throughout. The TGI is greater than 100 µM in test [7]; greater than 100 µM in test [8]; greater than 100 µM in [9]; 87.8 µM in test [12]; greater than 100 µM in [11].
On to `COc1ccc2c(c1)OCC1Cc3cccc(OC)c3OC21` (stereo not given), for which the TGI in [2], in test [3], in test [4], in test [5], in [8] and in test [9] was greater than 100 µM each time. The TGI in test [12] and in [11] was greater than 100 µM in each case.
As for `CC[n+]1c(/C=C/c2ccc(N(CCCl)CCCl)cc2)ccc2cc(Br)ccc21`, the GI50 in [3] was 1470 µM; in test [4], 84 µM; in [6], 86.2 µM; in test [7], 125 µM; in test [10], 588 µM; in [12], 92.7 µM. Also, the GI50 in test [11] was 1370 µM. Also, the TGI in test [8] came out at 3.13 µM; in test [9] it was 10.6 µM.
As for `C[C@H]1ON2CCC[C@@H]2[C@@H]1C(=O)N1C2CC3CCC2(CS1(=O)=O)C3(C)C` (stereo not given in full), the TGI in [1] was greater than 100 µM; in [2] it was greater than 100 µM; in test [4] it was greater than 100 µM; in test [5], greater than 100 µM; in test [6] it was 26.6 µM; in test [7] it was greater than 100 µM. The TGI in [8], in test [9], in test [10] and in [11] was greater than 100 µM each time.
Take `O=C1c2cc([N+](=O)[O-])cnc2S(=O)(=O)N1c1ccc(Oc2ccccc2)cc1`: the TGI in test [1], in [3], in test [4], in test [5], in [6] and in [7] was greater than 100 µM throughout. In addition, the TGI in test [8], in test [9], in [10], in test [12] and in [11] was greater than 100 µM in each case.
For the compound `O=c1[nH]nc(Cc2ccc(Cl)cc2)n1Nc1ccccc1`, the TGI in test [1], in test [2], in [3], in [4], in test [5] and in [7] was greater than 100 µM throughout. In addition, the TGI in test [8], in test [9], in [12] and in [11] was greater than 100 µM each time.
As to `COc1ccc2[nH]c3c(c2c1)CCc1ccccc1-3`, the TGI in test [1], in test [2], in test [3], in [4], in test [5] and in test [7] was greater than 100 µM each time. For the same compound, the TGI in [8], in test [9], in [12] and in test [11] was greater than 100 µM in each case.
Take `O=C(CC(C(=O)c1ccsc1)c1cccs1)c1ccsc1` (stereo not given): the TGI in test [1], in test [2], in test [3], in test [4], in test [5] and in [6] was greater than 100 µM in each case. Moreover, the TGI in test [7], in test [8], in [9] and in test [11] was greater than 100 µM each time.
On to `c1ccc(NC2(c3nnnn3C3CCCCC3)CCNCC2)cc1`, for which the TGI in test [1] was found to be 35.1 µM; in [3], 27.7 µM; in [4] it was 32.4 µM; in [6], 31.5 µM; in test [8] it was 27.3 µM; in test [9], 90.1 µM. Also, the TGI in test [12] was 32.3 µM; in test [11], greater than 100 µM.
For `CSc1ccc(C=C2N=C(c3ccccc3)N(c3cc(C(=O)c4ccccc4)ccc3N3C(=O)/C(=C/c4ccc(SC)cc4)N=C3c3ccccc3)C2=O)cc1`, the TGI in [1], in test [2], in test [3], in [5], in test [6] and in [7] was greater than 100 µM throughout. Moreover, the TGI in [8], in [9], in test [12] and in [11] was greater than 100 µM throughout.
Consider `COc1ccc(C(c2ccccc2)N2C(=O)CCC2C(=O)O)cc1OC` (stereo not given), for which the TGI in [1], in test [2], in [3], in test [4], in [5] and in test [6] was greater than 100 µM in each case. Moreover, the TGI in [7], in [8], in [9], in test [12] and in test [11] was greater than 100 µM in each case.
In the case of `CC(=O)Nc1ccccc1S(=O)(=O)c1c(-c2c(C)c(Cl)c(C)c(Cl)c2C)noc1C`, the TGI in test [1], in test [2], in [3], in [4], in test [5] and in test [7] was greater than 100 µM throughout. Further, the TGI in test [8], in test [9], in test [10] and in [11] was greater than 100 µM in each case.
With `CCCN=C1S/C(=C/c2ccc(OC)c(OC)c2)C(=O)N1c1ccccc1`, the TGI was greater than 100 µM in [1]; greater than 100 µM in [2]; 98.6 µM in test [3]; greater than 100 µM in test [4]; greater than 100 µM in [5]; greater than 100 µM in [6]. Moreover, the TGI in test [7], in test [8], in [9], in [12] and in test [11] was greater than 100 µM each time.
